For one series, the system named is H460 cells. Put plainly: Antiproliferative activity (MTT) against H460 tumor cell line. It is filed as cell-based, human.
The next series deals with LLC-MK2 (host cells). Description: Cytotoxicity (MTT) on LLC-MK2 host cells. It is filed as cell-based. The conditions noted are these: 120 h, MTT. The text has this:
Mammalian cells were used to evaluate the cytotoxicity of the tested compounds. […] Cells were dissociated from the monolayer by treatment with a solution containing 0.25% w/v trypsin and 0.04% EDTA.

In a further series the test system is A549 cells. Description: Antiproliferative activity (MTT) against A549 tumor cell line. In kind it is cell-based, human.
The target in series [1] is T. cruzi amastigotes (Tulahuen C2C4-LacZ). Put plainly: Trypanocidal activity against intracellular amastigotes (CPRG, beta-galactosidase). In kind it is cell-based, Trypanosoma cruzi. The procedure:
The antiparasitic activity assays used the Tulahuen C2C4-LacZ strain of the Trypanosoma cruzi parasite, being evaluated in the amastigote forms. […] Trypomastigote forms were collected from the culture supernatant between the 5th and 10th day after infection and separated from non-adherent cells by differential centrifugation. Epimastigote evolutionary form parasites were cultivated in LIT medium (Liver Infusion Tryptose), supplemented with hemin (25 mg/L) + 10% FBS, and incubated at 28 °C, performing successive passages every 6–7 days.
Non-internalized parasites were removed by three successive washes with PBS, followed by treatment with increasing concentrations of the hybrids (0.64–100 µM) in triplicates, pre-diluted in DMEM + 2% FBS. Untreated vehicle (0.2% v/v DMSO) and blank (no added parasites) controls were included in the experiment. Increasing concentrations of Benznidazole were used as the positive control. After incubation for 5 days (120 h), 30 µL of 0.5 mM chlorophenol red substrate β-galactopyranoside (CPRG) in PBS was added with 0.9% v/v of Igepal CA-630.

The subject of series [2] is peripheral blood mononuclear cells (PBMC). Description: Cytotoxicity (MTT) on peripheral blood mononuclear cells. As to conditions: 72 h, MTT.
Method: (§1) Cells were treated with increasing concentrations of the hybrids in triplicates, pre-diluted in DMEM + 2% FBS, and incubated for 120 h. The toxic effect of the molecules was also evaluated on human lung cancer cell lines (A549 and H460), as well as on PBMC. […] In all experiments, untreated controls, vehicle (0.2% v/v DMSO), and blanks (no added cells) were included. […] Then, 20 µL of 3.0 mM MTT saline was added and incubated for another 1.5 h. The supernatant was removed, and the MTT formazan crystals were dissolved by adding 120 µL/well of DMSO. After incubation for 1.5 h to dissolve the MTT crystals away from light and at 37 °C, the absorbance was measured at λ = 570 nm using a plate reader.

Method for A549 cells: as §1
Method for H460 cells: as §1

The term IC50 denotes the concentration that gives 50% inhibition. Turning to “(1E,6E)-1-(4-Hydroxy-3-methoxyphenyl)-7-(4-hydroxyphenyl)hepta-1,6-dien-3,5-dione [Compound 2, reference compound]”, the IC50 with H460 cells (72 h, MTT, read-out: H460 IC50) turned out to be 25.1 ± 5.55 µM; with LLC-MK2 (host cells) it was 22.7 ± 3.71 µM; in the series with A549 cells (72 h, MTT, read-out: A549 IC50) it was 73.3 ± 6.98 µM; in series [1] (120 h, in LLC-MK2 host cells), 31.3 ± 0.77 µM. Further, the “Selective Index SI H460” value in the series on H460 cells (PBMC LD50 vs H460 IC50) amounted to 5.76. In the series on A549 cells (PBMC LD50 vs A549 IC50), the “Selective Index SI A549” value came out at 1.96. Besides, the “Selective Index” value in series [1] (LLC-MK2 IC50 vs T. cruzi amastigote IC50) came out at 0.72. Moreover, the “PBMC LD50” value in series [2] is on record as 144.3 ± 12.30 µM.

(Values after PMC12030033, “Design and Synthesis of Bis-Chalcones as Curcumin Simplified Analogs and Assessment of Their Antiproliferative Activities Against Human Lung Cancer Cells and Trypanosoma cruzi Amastigotes” (Pharmaceuticals, 2025).)
